Reference: BindingDB's records for doi:10.1021/jm980001q (G.D. Searle And, 1998)

Target: T1, Glycylpeptide N-tetradecanoyltransferase (Candida albicans (strain SC5314 / ATCC MYA-2876), UniProt P30418)
T1 sequence (P30418 whole entry): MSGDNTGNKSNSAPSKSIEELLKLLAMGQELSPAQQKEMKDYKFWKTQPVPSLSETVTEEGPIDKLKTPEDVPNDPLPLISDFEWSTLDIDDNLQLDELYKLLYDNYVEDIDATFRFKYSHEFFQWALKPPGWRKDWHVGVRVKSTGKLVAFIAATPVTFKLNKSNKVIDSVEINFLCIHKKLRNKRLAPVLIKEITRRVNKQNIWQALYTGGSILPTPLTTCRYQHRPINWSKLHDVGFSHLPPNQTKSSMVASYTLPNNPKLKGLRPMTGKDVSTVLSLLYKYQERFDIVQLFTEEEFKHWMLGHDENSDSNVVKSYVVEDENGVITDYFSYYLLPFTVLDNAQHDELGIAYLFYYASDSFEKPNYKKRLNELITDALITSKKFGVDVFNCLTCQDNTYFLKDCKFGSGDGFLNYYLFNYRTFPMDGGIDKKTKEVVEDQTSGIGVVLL
Assay: The Compound was tested for the inhibition potency against Candida albicans N-myristoyltransferase (NMT) and reported as apparent Ki

**Q.** With H-ALYASKLS-NH2 as the substance, how does the Ki read?
**A.** 15.3 µM
